Assay type in all cases: cell membranes, Membrane
The target in experiment [1] is Neuronal acetylcholine receptor subunit alpha-7 (Rattus norvegicus, UniProt Q05941).
The target in experiment [2] is Muscarinic acetylcholine receptor. The experiment in a line: Inhibition of [3H]N-methylscopolamine binding to muscarinic receptor of rat cortex membranes.
The target in experiment [3] is Neuronal acetylcholine receptor; alpha4/beta2 (Rattus norvegicus, UniProt P09483+P12390). The experiment in a line: Inhibition of [3H]epibatidine binding to alpha 4 beta 2 nicotinic acetylcholine receptor of rat cortex membranes.
Sequence of Neuronal acetylcholine receptor; alpha4/beta2 (P09483 whole entry): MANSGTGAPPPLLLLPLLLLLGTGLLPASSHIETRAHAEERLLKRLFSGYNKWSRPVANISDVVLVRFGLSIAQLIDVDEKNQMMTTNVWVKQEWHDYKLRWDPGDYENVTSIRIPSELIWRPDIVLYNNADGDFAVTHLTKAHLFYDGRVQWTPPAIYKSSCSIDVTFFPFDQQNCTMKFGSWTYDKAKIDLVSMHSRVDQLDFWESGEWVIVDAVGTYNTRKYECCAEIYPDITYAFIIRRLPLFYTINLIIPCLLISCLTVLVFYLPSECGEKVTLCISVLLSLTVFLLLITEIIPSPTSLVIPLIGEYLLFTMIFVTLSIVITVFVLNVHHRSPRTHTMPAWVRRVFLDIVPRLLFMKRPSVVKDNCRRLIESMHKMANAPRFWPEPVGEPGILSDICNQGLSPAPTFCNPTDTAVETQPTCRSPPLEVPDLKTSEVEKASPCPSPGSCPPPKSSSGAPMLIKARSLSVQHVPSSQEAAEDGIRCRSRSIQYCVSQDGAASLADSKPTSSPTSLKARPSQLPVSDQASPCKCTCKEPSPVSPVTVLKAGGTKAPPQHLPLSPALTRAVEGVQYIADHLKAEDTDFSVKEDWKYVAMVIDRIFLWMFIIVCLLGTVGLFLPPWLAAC
Sequence of Neuronal acetylcholine receptor; alpha4/beta2 (P12390 whole entry): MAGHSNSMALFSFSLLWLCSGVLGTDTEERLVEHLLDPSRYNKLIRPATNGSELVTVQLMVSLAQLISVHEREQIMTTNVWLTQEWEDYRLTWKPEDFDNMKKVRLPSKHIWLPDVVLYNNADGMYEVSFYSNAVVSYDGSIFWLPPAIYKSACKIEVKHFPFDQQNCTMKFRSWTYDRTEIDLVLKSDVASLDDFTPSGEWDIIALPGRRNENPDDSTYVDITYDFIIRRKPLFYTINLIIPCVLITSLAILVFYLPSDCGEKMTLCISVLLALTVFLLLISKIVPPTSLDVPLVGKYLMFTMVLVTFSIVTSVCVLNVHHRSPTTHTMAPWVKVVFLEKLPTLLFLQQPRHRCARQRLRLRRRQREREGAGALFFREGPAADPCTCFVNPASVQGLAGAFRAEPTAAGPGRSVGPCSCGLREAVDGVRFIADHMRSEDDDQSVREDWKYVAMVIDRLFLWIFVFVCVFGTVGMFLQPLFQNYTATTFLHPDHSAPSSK

Sequence of Neuronal acetylcholine receptor subunit alpha-7 (Q05941 whole entry): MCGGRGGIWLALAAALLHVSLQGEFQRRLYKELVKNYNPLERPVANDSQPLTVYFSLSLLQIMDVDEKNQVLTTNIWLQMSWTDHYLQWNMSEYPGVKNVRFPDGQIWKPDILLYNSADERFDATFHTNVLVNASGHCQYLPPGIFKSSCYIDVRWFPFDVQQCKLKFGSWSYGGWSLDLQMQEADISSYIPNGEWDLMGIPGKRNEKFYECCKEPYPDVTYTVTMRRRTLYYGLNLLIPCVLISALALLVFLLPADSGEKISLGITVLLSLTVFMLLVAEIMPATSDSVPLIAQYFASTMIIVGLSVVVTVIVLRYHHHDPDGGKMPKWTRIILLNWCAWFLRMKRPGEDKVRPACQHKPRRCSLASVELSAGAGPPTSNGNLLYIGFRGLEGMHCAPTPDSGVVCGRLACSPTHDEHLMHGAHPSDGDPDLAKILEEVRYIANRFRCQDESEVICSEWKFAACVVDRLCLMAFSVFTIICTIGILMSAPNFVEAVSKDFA

Broadly, the Ki is the equilibrium dissociation constant of an inhibitor or competing ligand from its target. Higher therefore signals lower affinity. As to `CC(C)=NOC[C@@H]1CCCN1C`, the inhibition constant (Ki) in experiment [1] was 49 µM; in experiment [2], over 50 µM; in experiment [3], 0.52 µM.

For `CC(C)O/N=C/[C@@H]1CCCN1C`, the Ki in experiment [1] is over 50 µM; in experiment [2], 17 µM.

As to `CC(C)O/N=C\[C@H]1CCCN1C`, the affinity in experiment [3] corresponds to a Ki of 14.5 µM.

For `CC(C)=NO[C@H]1CCCN(C)C1`, the Ki in experiment [3] was over 50 µM.

On to `C/C=N\OC[C@H]1CCCN1C`, for which the inhibition constant (Ki) in experiment [3] turned out to be 5.79 µM.

`C/C=N\OC[C@@H]1CCCN1C`: the Ki in experiment [1] and in experiment [2] was over 50 µM throughout.

Turning to `Cc1cc([C@@H]2CCCN2C)on1` [ABT-418], the figures for the Ki in experiment [1] and in experiment [3] were 1.2 µM and 0.02 µM, respectively.

Regarding `CC(C)O/N=C\[C@@H]1CCCN1C`, in experiment [3], the Ki turned out to be 1.9 µM.

For the compound `CC(C)=NO[C@@H]1CCCN(C)C1`, the inhibition constant Ki in experiment [3] is over 50 µM.

Turning to `CC=NOC[C@@H]1CCCN1C`, the values for the Ki in experiment [1], in experiment [2] and in experiment [3] were over 50 µM, over 50 µM and 0.68 µM, respectively.

Consider `CC(C)O/N=C/[C@H]1CCCN1C`, for which the inhibition constant Ki was found to be 47 µM in experiment [1] and 5.5 µM in experiment [3].

The values above are taken from ChEMBL document CHEMBL1137061 (Bioorg Med Chem Lett, 2004).
